From patent US20120016009A1, “Optimized Methods For Delivery Of DSRNA Targeting The PCSK9 Gene” (priority 2008, published 2012)
In the oligonucleotide strings, read from the 5' end, every base follows the letter of its sugar. An asterisk marks phosphorothioate; unmarked linkages are phosphodiester. Other units and linkages are bracketed, terminal groups are in braces. A string of capitals states the bases alone. [Ab] = 3'-terminal abasic nucleotide; e = 2'-O-(2-methoxyethyl) (MOE); d = 2'-deoxy (DNA); m = 2'-O-methyl; r = 2'-OH (RNA); {P} = phosphate; f = 2'-fluoro

How the values were obtained:
PCSK9 mRNA [1] = assay: In vitro screening of modified dsRNAs targeted to PCSK9 (Table 2b; cell type not given); format: cell-based; settings: 30 nM siRNA
Protocol: For transfection with siRNA, HuH7, HepG2, or HeLa cells were seeded at a density of 2.0×10^4 cells/well in 96-well plates and transfected directly. Transfection of siRNA (30 nM for single dose screen) was carried out with lipofectamine 2000 (Invitrogen GmbH, Karlsruhe, Germany, cat. No. 11668-019) as described by the manufacturer.
24 hours after transfection HuH7 and HepG2 cells were lysed and PCSK9 mRNA levels were quantified with the Quantigene Explore Kit (Genosprectra, Dumbarton Circle Fremont, USA, cat. No. QG-000-02) according to the protocol. PCSK9 mRNA levels were normalized to GAP-DH mRNA. For each siRNA eight individual datapoints were collected. siRNA duplexes unrelated to PCSK9 gene were used as control. The activity of a given PCSK9 specific siRNA duplex was expressed as percent PCSK9 mRNA concentration in treated cells relative to PCSK9 mRNA concentration in cells treated with the control siRNA duplex.
Tables 1b and 2b (and FIG. 6A) summarize the results and provide examples of in vitro screens in different cell lines at different doses. Silencing of PCSK9 transcript was expressed as percentage of remaining transcript at a given dose.

PCSK9 mRNA [2] = assay: PCSK9 siRNA screening in HepG2 cells (lipofectamine 2000 transfection, PCSK9 mRNA by Quantigene, normalized to GAP-DH); format: cell-based, human; settings: for Mean percent remaining mRNA transcript at siRNA concentration/in cell type 30 nM/HepG2: 30 nM siRNA; for Mean percent remaining mRNA transcript at siRNA concentration/in cell type 3 nM/HepG2: 3 nM siRNA
Method in brief: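 PCSK9 silencing was assessed in HepG2 cells by lipofectamine 2000 siRNA transfection in 96-well plates. Twenty-four hours later, lysates were analyzed with the Quantigene Explore Kit, with PCSK9 signal normalized to GAP-DH. Eight datapoints were collected per siRNA, and remaining transcript was expressed as a percentage of cells treated with an unrelated control siRNA duplex.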

| Substance | Remaining mRNA in % of controls at siRNA conc. of 30 nM (PCSK9 mRNA [1]) [%] | Mean percent remaining mRNA transcript at siRNA concentration/in cell type 30 nM/HepG2 (PCSK9 mRNA [2]) [%] | other results |
| --- | --- | --- | --- |
| AD-12364: modified dsRNA, SEQ ID NO:1425/1426 (chain 1 GCCUGGAGUUUAUUCGGAATT; chain 2 rUrUrCrCrGmAmArUrAmAmArCrUrCrCrAmGmGmCdT*dT; chain 1: sugars from the 5' end rerererererererererdd, linkages o19 s1 (s phosphorothioate, o phosphodiester), methylation of C and T or U not given here) | 25 | – | – |
| AD-12040: modified dsRNA, SEQ ID NO:1315/1316 (chain 1 rGmCmCmUrGrGrArGmUmUmUrAmUmUmCrGrGrArAdT*dT; chain 2 rUrUmCrCrGrArArUrArArArCrUrCrCrArGrGrCdT*dT) | 10 | – | – |
| AD-12380: modified dsRNA, SEQ ID NO:1455/1456 (chain 1 rGfCfCfUrGrGrArGfUfUfUrAfUfUfCrGrGrArAdT*dT; chain 2 {P}-mUfUmCfCmGfAmAfUmAfAmAfCmUfCmCfAmGfGmC*fC*mU) | 8 | – | – |
| AD-12356: modified dsRNA, SEQ ID NO:1409/1410 (chain 1 fGmCfCmUfGmGfAmGfUmUfUmAfUmUfCmGfGmAfA; chain 2 mUrUmCrCrGrArAmUrArArArCrUmCmCrArGrGrCdT*dT) | 25 | – | – |
| AD-12351: modified dsRNA, SEQ ID NO:1401/1402 (chain 1 fGmCfCmUfGmGfAmGfUmUfUmAfUmUfCmGfGmAfA; chain 2 {P}-mUfUmCfCmGfAmAfUmAfAmAfCmUfCmCfAmGfGmC*fC*mU) | 11 | – | – |
| AD-12060: modified dsRNA, SEQ ID NO:1355/1356 (chain 1 rGmCrCmUrGmGrAmGrUmUrUmArUmUrCmGrGmArA; chain 2 rUrUrCrCrGmAmArUrAmAmArCrUrCrCrAmGmGmC) | 10 | – | – |
| AD-12043: modified dsRNA, SEQ ID NO:1321/1322 (chain 1 rGrCrCrUrGrGrArGrUrUrUrArUrUrCrGrGrArAdT*dT; chain 2 rUmUrCrCrGrArArUrArArArCrUrCrCrArGrGrCdT*dT) | 13 | – | – |
| AD-12400: modified dsRNA, SEQ ID NO:1495/1496 (chain 1 rGrCrCrUrGrGrArGrUrUrUrArUrUrCrGrGrArAdT*dT; chain 2 {P}-fUfUfCfCrGrArAfUrArArAfCfUfCfCrArGrGfC*fC*fU) | 12 | – | – |
| AD-12052: modified dsRNA, SEQ ID NO:1339/1340 (chain 1 rGmCmCmUrGrGrArGmUmUmUrAmUmUmCrGrGrArArArAdTdT[Ab]; chain 2 rUrUrUrUrCrCrGrArArUrArArArCrUrCrCrArGrGrCdTdT[Ab]) | 81 | – | – |
| AD-12057: modified dsRNA, SEQ ID NO:1349/1350 (chain 1 rGmCrCmUrGmGrAmGrUmUrUmArUmUrCmGrGmArA; chain 2 rUrUrCrCrGrArArUrArArArCrUrCrCrArGrGrCdT*dT) | 8 | – | – |
| AD-12347: modified dsRNA, SEQ ID NO:1393/1394 (chain 1 rGrCrCrUrGrGrArGrUrUrUrArUrUrCrGrGrArAdT*dT; chain 2 {P}-mUfUmCfCmGfAmAfUmAfAmAfCmUfCmCfAmGfGmCdT*dT) | 11 | – | – |
| AD-12068: modified dsRNA, SEQ ID NO:1371/1372 (chain 1 rGmCrCmUrGmGrAmGrUmUrUmArUmUrCmGrGmArAdTdT[Ab]; chain 2 rUrUrCrCrGrArArUrArArArCrUrCrCrArGrGrCdTdT[Ab]) | 18 | – | – |
| AD-12041: modified dsRNA, SEQ ID NO:1317/1318 (chain 1 rGmCmCmUrGrGrArGmUmUmUrAmUmUmCrGrGrArAdT*dT; chain 2 rUrUrCmCrGrArArUrArArArCrUrCrCrArGrGrCdT*dT) | 11 | – | – |
| AD-12055: modified dsRNA, SEQ ID NO:1345/1346 (chain 1 rGmCmCmUrGrGrArGmUmUmUrAmUmUmCrGrGrArAdT*dT; chain 2 rUrUrCrCrGrArArUrArArArCrUrCrCrArGrGrC*mC*mU) | 13 | – | – |
| AD-12340: modified dsRNA, SEQ ID NO:1379/1380 (chain 1 rGmCmCmUrGrGrArGmUmUmUrAmUmUmCrGrGrArA; chain 2 {P}-mUfUmCfCmGfAmAfUmAfAmAfCmUfCmCfAmGfGmC) | 19 | – | – |
| AD-12389: modified dsRNA, SEQ ID NO:1473/1474 (chain 1 rGfCfCfUrGrGrArGrGfUfUfUrAfUfUfCrGrGrArA; chain 2 {P}-mUfUmCfCmGfAmAfUmAfAmAfCmUfCmCfAmGfGmC*fC*mU) | 16 | – | – |
| AD-12393: modified dsRNA, SEQ ID NO:1481/1482 (chain 1 rGfCfCfUrGrGrArGrGfUfUfUrAfUfUfCrGrGrArA; chain 2 rUrUrCrCrGrArAmUrArArArCrUrCmCrArGrGrCdT*dT) | 17 | – | – |
| AD-12059: modified dsRNA, SEQ ID NO:1353/1354 (chain 1 rGmCrCmUrGmGrAmGrUmUrUmArUmUrCmGrGmArA; chain 2 mUrUmCrCrGrArAmUrArArArCrUmCmCrArGrGrCdT*dT) | 23 | – | – |
| AD-12056: modified dsRNA, SEQ ID NO:1347/1348 (chain 1 rGmCrCmUrGmGrAmGrUmUrUmArUmUrCmGrGmArA; chain 2 rUrUrCrCrGrArArUrArArArCrUrCrCrArGrGrCdTdT[Ab]) | 11 | – | – |
| AD-12385: modified dsRNA, SEQ ID NO:1465/1466 (chain 1 GCCUGGNAGUUUAUUCGGAATT; chain 2 {P}-fUfUfCfCrGrArAfUrArArAfCfUfCfCrArGrGfCdT*dT; chain 1: chemistry not given here; further chemistry not fully specified) | 8 | – | – |
| AD-12396: modified dsRNA, SEQ ID NO:1487/1488 (chain 1 GCCUGGAGUUUAUUCGGAA; chain 2 UUCCGAAUAAACUCCAGGCCU; chemical modifications, chemistry not fully specified) | 59 | – | – |
| AD-9606: PCSK9 siRNA (sense rUrCrGrUrGrCrUrGrGrUrCrArCrCrGrCrUrGrCdT*dT; antisense rGrCrArGrCrGrGrUrGrArCrCrArGrCrArCrGrAdT*dT) | – | 107 | – |
| AD-9611: PCSK9 siRNA (sense rUrCrCrUrArGrArCrArCrCrArGrCrArUrArCrAdT*dT; antisense rUrGrUrArUrGrCrUrGrGrUrGrUrCrUrArGrGrAdT*dT) | – | 48 | – |
| AD-9673: PCSK9 siRNA (sense mCmUmCrGmCrArGmUmCrArGrArGmCrGmCrAmCmUdT*dT; antisense rArGrUrGrCrGrCrUrCrUrGrArCrUrGrCrGrArGdT*dT) | – | 56 | Mean percent remaining mRNA transcript at siRNA concentration/in cell type 3 nM/HepG2 (PCSK9 mRNA [2]): 57% |
| AD-9655: PCSK9 siRNA (sense rGrGrGrAmUrAmCmCmUmCrAmCmCrArArGrAmUmCdT*dT; antisense rGrArUrCrUrUrGrGrUrGrArGrGmUrArUrCrCrCdT*dT) | – | 140 | – |
| AD-9684: PCSK9 siRNA (sense mUrAmUmCmUmUmUmUrGrGrGmUmCmUrGmUmCmCmUdT*dT; antisense rArGrGrAmCrArGrArCrCmCrArArArArGrAmUrAdT*dT) | – | 63 | – |
| AD-9560: PCSK9 siRNA (sense rGrArGrUrUrUrArUrUrCrGrGrArArArArGrCrCdT*dT; antisense rGrGrCrUrUrUrUrCrCrGrArArUrArArArCrUrCdT*dT) | – | 97 | – |
| AD-9724: PCSK9 siRNA (sense mCmCmUrGrGmUrGrGrArGrGmUrGmUrAmUmCmUmCdT*dT; antisense rGrArGrAmUrAmCrArCrCrUrCmCrArCmCrArGrGdT*dT) | – | 127 | – |
| AD-9315: PCSK9 siRNA (sense rGrCrGrGrCrArCrCrCrUrCrArUrArGrGrCrCrUdT*dT; antisense rArGrGrCrCrUrArUrGrArGrGrGrUrGrCrCrGrCdT*dT) | – | 15 | IC50 (PCSK9 mRNA [2]): 0.98 nM; Mean percent remaining mRNA transcript at siRNA concentration/in cell type 3 nM/HepG2 (PCSK9 mRNA [2]): 32% |
| AD-9536: PCSK9 siRNA (sense rUrUrArUrUrCrGrGrArArArArGrCrCrArGrCrUdT*dT; antisense rArGrCrUrGrGrCrUrUrUrUrCrCrGrArArUrArAdT*dT) | – | 157 | – |
